For one compound, Km and k cat results are on record in ChEMBL document CHEMBL1133142, “Synthesis of dolichyl phosphate derivatives with fluorescent label at the omega-end of the chain, new tools to study protein glycosylation” (Bioorg Med Chem Lett, 2000).

Test [1] concerns Saccharomyces cerevisiae. In words: Tested for the kinetic constant (Km) against the enzyme Dolichyl phosphate mannose synthase.
Test [2] concerns Saccharomyces cerevisiae. In words: Tested for the kinetic parameter relative Kcat on Dolichyl phosphate mannose synthase.

SMILES strings stand for the structures.

Usually Km stands for the concentration of substrate that gives half-maximal velocity. On to `C/C(=C\CC/C(C)=C/CC/C(C)=C/CC/C(C)=C/CC/C(C)=C/CC/C(C)=C/CC/C(C)=C/CCC(C)CCOP(=O)(O)O)CC/C=C(\C)CC/C=C(\C)CC/C=C(\C)CC/C=C(\C)CC/C=C(\C)CC/C=C(\C)CC/C=C(\C)CCCNc1cccc2ccccc12` (configuration not stated), for which the Km in test [1] came to 11.7 µM. Further, the k cat in test [2] is 1.27.
